Experimental data reported in PMC6803965, “A New Class of β–Pyrrolidino-1,2,3-Triazole Derivatives as β-Adrenergic Receptor Inhibitors: Synthesis, Pharmacological, and Docking Studies” (Molecules, 2019).
≈ marks a conversion by molar mass, not a printed value. Where two headings read alike, the source gives them in different places.

Experiments:
[1] = test system: Enterobacter aerogenes; assay: Antimicrobial well method, zone of inhibition; assay type: cell-based; details: Klebsiella aerogenes
Experimental: (§1) Antimicrobial activity was carried out as described previously. Briefly, 20 mL of sterile Mueller Hinton agar (MHA) was poured in the petri plates and kept for solidification. After solidification, the test cultures were swabbed on the top of the media and kept for 10 min to dry. The required concentration (1 mg/well) of synthesized compounds 5a–l was added to each well and left for 30 min at RT for compound diffusion. Ketoconazole (fungi) and streptomycin (bacteria) used for positive controls. The zone of inhibition was recorded in mm and the experiment was repeated twice.

[2] = test system: Klebsiella pneumoniae; assay: Antimicrobial well method, zone of inhibition; assay type: cell-based
Experimental: as §1

[3] = test system: Micrococcus luteus; assay: Antimicrobial well method, zone of inhibition; assay type: cell-based
Experimental: as §1

[4] = test system: Proteus vulgaris; assay: Antimicrobial well method, zone of inhibition; assay type: cell-based
Experimental: as §1

[5] = test system: Salmonella paratyphi-B; assay: Antimicrobial well method, zone of inhibition; assay type: cell-based
Experimental: as §1

[6] = test system: Salmonella typhimurium; assay: Antimicrobial well method, zone of inhibition; assay type: cell-based; details: Salmonella enterica
Experimental: as §1

[7] = test system: Shigella flexneri; assay: Antimicrobial well method, zone of inhibition; assay type: cell-based
Experimental: as §1

[8] = test system: Staphylococcus aureus-MRSA; assay: Antimicrobial well method, zone of inhibition; assay type: cell-based
Experimental: as §1

[9] = test system: Staphylococcus aureus; assay: Antimicrobial well method, zone of inhibition; assay type: cell-based
Experimental: as §1

[10] = test system: Staphylococcus epidermidis; assay: Antimicrobial well method, zone of inhibition; assay type: cell-based
Experimental: as §1

[11] = test system: Enterobacter aerogenes; assay: Minimum inhibitory concentration (MIC); assay type: cell-based; details: Klebsiella aerogenes, read-out: Minimum inhibitory concentration
Experimental: (§2) The MIC experiment was carried out according to the standard reference methods. Briefly, the required concentrations of synthesized compounds 5a–l were dissolved in DMSO (Dimethylsulfoxide) in concentrations of 500 µg/mL, 250 µg/mL, 125 µg/mL, 62.5 µg/mL, 31.25 µg/mL, 15.6 µg/mL, and […]. An inoculum of 100 µL from each well (96-well plate) was inoculated. For the positive control, ketoconazole (fungi) and streptomycin (bacteria) was used. The MIC values for the tested bacteria were identified as the lowest inhibiting concentration of compound on the agar plate in visual growth.

[12] = test system: Klebsiella pneumoniae; assay: Minimum inhibitory concentration (MIC); assay type: cell-based; details: read-out: Minimum inhibitory concentration
Experimental: as §2

[13] = test system: Micrococcus luteus; assay: Minimum inhibitory concentration (MIC); assay type: cell-based; details: read-out: Minimum inhibitory concentration
Experimental: as §2

[14] = test system: Proteus vulgaris; assay: Minimum inhibitory concentration (MIC); assay type: cell-based; details: read-out: Minimum inhibitory concentration
Experimental: as §2

[15] = test system: Salmonella paratyphi-B; assay: Minimum inhibitory concentration (MIC); assay type: cell-based
Experimental: as §2

[16] = test system: Salmonella typhimurium; assay: Minimum inhibitory concentration (MIC); assay type: cell-based; details: Salmonella enterica, read-out: Minimum inhibitory concentration
Experimental: as §2

[17] = test system: Shigella flexneri; assay: Minimum inhibitory concentration (MIC); assay type: cell-based
Experimental: as §2

[18] = test system: Staphylococcus aureus-MRSA; assay: Minimum inhibitory concentration (MIC); assay type: cell-based; details: read-out: Minimum inhibitory concentration
Experimental: as §2

[19] = test system: Staphylococcus aureus; assay: Minimum inhibitory concentration (MIC); assay type: cell-based; details: read-out: Minimum inhibitory concentration
Experimental: as §2

[20] = test system: Staphylococcus epidermidis; assay: Minimum inhibitory concentration (MIC); assay type: cell-based; details: read-out: Minimum inhibitory concentration
Experimental: as §2

[21] = test system: A549 cells; assay: Cytotoxicity, aqueous one solution reagent; assay type: cell-based; details: for IC50: Homo sapiens, 24 h treatment, read-out: IC50 against A549
Experimental: (§3) The cytotoxic study was carried out as reported previously. Briefly, IMR90, HepG-2, and A549 cells were grown in DMEM (Dulbecco’s Modified Eagle Medium) that contained 10% fetal bovine serum and 1% antibiotics. A total of 15 × 10^3 cells/well were seeded in 96-well plates and incubated under humidified conditions. Cells were treated with varying concentrations of synthesized triazoles for 24 h. After a 24 h treatment, 20 µL aqueous one solution reagent was added to each well and incubated for 3–4 h under a humidified condition. For IMR90 cells, MTT (MTT = 3-(4,5-dimethyl-2-thiazolyl)-2,5-diphenyl-2H-tetrazolium bromide) (5 mg/mL) was added and incubated for 3–4 h in the dark. After incubation, 100 µL of a 10% SDS (Sodium Dodecyl Sulfate) solution (0.01% HCl) was added to each well. The data was taken using an ELISA (enzyme-linked immunosorbent assay) reader at the absorbance of 490 nm for HepG-2 and A549 cells and 570 nm for IMR90 cells. The cell death was calculated using the following formula: Inhibition (%) = ((A − B)/A) × 100 (A—control group, B—treated group).

[22] = test system: HepG-2 cells; assay: Cytotoxicity, aqueous one solution reagent; assay type: cell-based; details: Homo sapiens, HepG2, 24 h treatment, read-out: IC50 against HepG-2
Experimental: as §3

[23] = test system: IMR90 cells; assay: Cytotoxicity on normal cells, MTT; assay type: cell-based; details: IMR-90, human normal IMR90 cells, 24 h treatment, read-out: IC50 against IMR90
Experimental: as §3

[24] = test system: tested bacteria; assay: Antimicrobial well method, result in words; assay type: cell-based; details: 1 mg/mL concentration
Experimental: as §1

[25] = test system: Candida albicans; assay: Antimicrobial well method, zone of inhibition; assay type: cell-based; details: 1 mg/well
Experimental: as §1

[26] = test system: Malassezia pachydermatis; assay: Antimicrobial well method, zone of inhibition; assay type: cell-based
Experimental: as §1

| Compound | zone of inhibition at 1 mg/well [1] | zone of inhibition at 1 mg/well [2] | zone of inhibition at 1 mg/well [3] | zone of inhibition at 1 mg/well [4] | zone of inhibition at 1 mg/well [5] | zone of inhibition at 1 mg/well [6] | zone of inhibition at 1 mg/well [7] | zone of inhibition at 1 mg/well [8] | zone of inhibition at 1 mg/well [9] | zone of inhibition at 1 mg/well [10] | MIC [12] | MIC [13] | MIC [14] | MIC [15] | MIC ([16]; TYPHIMURIUM) | MIC [17] | MIC ([18]; Staphylococcus, MRSA) | MIC [19] | MIC [20] | antimicrobial activity against tested bacteria [24] | also measured |
| --- | --- | --- | --- | --- | --- | --- | --- | --- | --- | --- | --- | --- | --- | --- | --- | --- | --- | --- | --- | --- | --- |
| COc1ccc(C(=O)OCc2cn([C@H](c3ccccc3)[C@H](C)N3CCCC3)nn2)cc1OC [5h, (1R,2S)-(1-(1-Phenyl-2-(pyrrolidin-1-yl)propyl)-1H-1,2,3-triazol-4-yl)methyl-3,4-dimethoxy-benzoate] | 17 mm | 20 mm | 14 mm | 23 mm | 19 mm | 22 mm | 18 mm | 20 mm | 15 mm | 16 mm | 62.5 µg/mL (≈ 139 µM) | 250 µg/mL (≈ 555 µM) | 62.5 µg/mL (≈ 139 µM) | 62.5 µg/mL (≈ 139 µM) | 62.5 µg/mL (≈ 139 µM) | 125 µg/mL (≈ 277 µM) | 62.5 µg/mL (≈ 139 µM) | 250 µg/mL (≈ 555 µM) | 125 µg/mL (≈ 277 µM) | promising activity | MIC [11]: 125 µg/mL (≈ 277 µM); cytotoxic / anticancer activity against A549 cells [21]: promising anticancer activity; IC50 [21]: 58 ± 2.31 µM; IC50 [22]: 73 ± 3.88 µM; IC50 [23]: > 250 µM |
| Cc1cccc(C(=O)OCc2cn([C@H](c3ccccc3)[C@H](C)N3CCCC3)nn2)c1 [5j, (1R,2S)-(1-(1-Phenyl-2-(pyrrolidin-1-yl)propyl)-1H-1,2,3-triazol-4-yl)methyl 3-methylbenzoate] | – | 22 mm | 16 mm | 20 mm | 18 mm | 20 mm | 22 mm | 14 mm | 15 mm | 14 mm | 62.5 µg/mL (≈ 155 µM) | 125 µg/mL (≈ 309 µM) | 62.5 µg/mL (≈ 155 µM) | 125 µg/mL (≈ 309 µM) | 62.5 µg/mL (≈ 155 µM) | 62.5 µg/mL (≈ 155 µM) | – | 250 µg/mL (≈ 618 µM) | 250 µg/mL (≈ 618 µM) | promising activity | zone of inhibition [25]: 13 mm; zone of inhibition at 1 mg/well [26]: 11 mm; MIC ([18]; Staphylococcus aureus-MRSA): 250 µg/mL (≈ 618 µM); cytotoxic / anticancer activity against A549 cells [21]: promising anticancer activity; IC50 [21]: 111 ± 1.82 µM; IC50 [22]: > 300 µM; IC50 [23]: > 250 µM |
| C[C@@H]([C@@H](c1ccccc1)n1cc(COC(=O)c2ccccc2Cl)nn1)N1CCCC1 [5k, (1R,2S)-(1-(1-Phenyl-2-(pyrrolidin-1-yl)propyl)-1H-1,2,3-triazol-4-yl)methyl 2-chlorobenzoate] | 22 mm | 14 mm | – | 16 mm | 18 mm | 15 mm | 17 mm | 17 mm | 18 mm | – | 250 µg/mL (≈ 588 µM) | – | 125 µg/mL (≈ 294 µM) | 125 µg/mL (≈ 294 µM) | – | 125 µg/mL (≈ 294 µM) | 125 µg/mL (≈ 294 µM) | 125 µg/mL (≈ 294 µM) | – | promising activity | MIC ([11]; Enterobacter aerogenes): 62.5 µg/mL (≈ 147 µM); MIC ([16]; Salmonella typhimurium): 250 µg/mL (≈ 588 µM); melting point: 101 to 102 °C |
